Where a SMILES comes first, the peptide text is derived from it. [ ]: non-standard residue; d: D form. Aib = CC(C)(N)C(=O)O
How the values were obtained:
human GCGR = human GCGR (Homo sapiens, UniProt P47871); experiment: Peptide-receptor mediated cAMP accumulation (LANCE Ultra cAMP) in CHO-K1 cells transfected with human GCGR; format: cell-based; details: for hGCGR pEC50 (cAMP mean (n = 3): 11 point curve starting at 1 nM): Table 3
human GLP-1R = human GLP-1R (Homo sapiens, UniProt P43220); experiment: Peptide-receptor mediated cAMP accumulation (LANCE Ultra cAMP) in CHO-K1 cells transfected with human GLP-1R; format: cell-based
[1] = Solubility in water or saline at room temperature, visual inspection; format: physicochemical; details: Solubility in water mg/ml
Text: Samples were visually inspected for clarity of the sample, any appearance of turbidity or haziness.

[2] = Stability in water or saline at 37° C. and room temperature, 30 days, LC/MS and HPLC purity; format: physicochemical
Text: Samples were withdrawn at a regular interval for 30 days and analyzed by LC/MS and HPLC for determination of purity and mass of the degradation product.

in vivo = details: male, rat
Protocol: Peptides were formulated in sterile saline and administered as a 3-hour intravenous infusion to non-fasted male Wistar Han or Sprague-Dawley rats (n=3 per group) via jugular vein cannula at a final dose of 0.3 or 0.1 mg/kg. […] Plasma was prepared by centrifugation and stored at −80° C. until analysis.
Protein Precipitation: All 96-well plates were coated with a blocking agent to mitigate non-specific binding of peptides. Plasma samples (75 uL) were added to a 96-well plate containing 200 uL of 2:1 ethanol:acetonitrile containing 0.1% TFA and mixed well via aspiration. Plates were capped, vortex-mixed and centrifuged. Supernatants (215 uL) were transferred to a clean 96-well plate, evaporated to dryness under nitrogen flow and then reconstituted in 75 μL of 20% acetonitrile in water containing 0.10% formic acid.
Solid-Phase Extraction: Samples were diluted 3-fold with 5% NH4OH (aq) and loaded onto an Oasis MAX microElution plate (Waters Corp, Milford, MA) that had been pre-conditioned with 200 uL each of methanol and 5% NH4OH (aq). The plate was washed with 200 uL 5% NH4OH (aq), followed by 200 uL 20% acetonitrile in water. […] Samples were reconstituted in 80 uL 0.1% formic acid in water.
All calibration standards were prepared in control rat plasma containing K2EDTA and protease inhibitor cocktail. […] Samples were injected onto a 2.1×50 mm reverse phase C18 analytical column, typically a Waters ACQUITY UPLC™ HSS T3, 1.8 μm (Waters Corporation, Milford, MA) or similar. […] Typical flow rates were 600 L/min. The column temperature was held constant at 40 or 45° C. Peptides were quantified my monitoring one or more product ions produced from a multiply charged parent ion.

[3] = hGLP1 pEC50 (cAMP mean (n = 3): 11 point curve starting at 1 nM, Table 3)
[4] = hGLP1 pEC50 (cAMP) mean (n = 9): 11 point curve starting at 500 uM, Table 2A
[5] = hGLP1 pEC50 (cAMP) mean (n = 3): 11 point curve starting at 1 nM, Table 2B

human GCGR, sequence (P47871 26-477): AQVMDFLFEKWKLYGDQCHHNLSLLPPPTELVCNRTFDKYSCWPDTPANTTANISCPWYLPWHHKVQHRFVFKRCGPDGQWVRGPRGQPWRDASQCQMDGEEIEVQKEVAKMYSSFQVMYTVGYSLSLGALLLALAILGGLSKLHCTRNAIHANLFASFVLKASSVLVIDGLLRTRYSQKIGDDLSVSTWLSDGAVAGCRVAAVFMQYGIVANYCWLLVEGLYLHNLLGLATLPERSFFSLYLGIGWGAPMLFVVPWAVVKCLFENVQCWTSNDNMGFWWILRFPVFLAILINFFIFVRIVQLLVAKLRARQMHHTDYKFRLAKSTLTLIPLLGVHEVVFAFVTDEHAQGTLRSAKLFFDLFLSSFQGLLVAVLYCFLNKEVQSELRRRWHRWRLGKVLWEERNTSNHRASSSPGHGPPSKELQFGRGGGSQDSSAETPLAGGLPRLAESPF
human GLP-1R, sequence (P43220 24-463): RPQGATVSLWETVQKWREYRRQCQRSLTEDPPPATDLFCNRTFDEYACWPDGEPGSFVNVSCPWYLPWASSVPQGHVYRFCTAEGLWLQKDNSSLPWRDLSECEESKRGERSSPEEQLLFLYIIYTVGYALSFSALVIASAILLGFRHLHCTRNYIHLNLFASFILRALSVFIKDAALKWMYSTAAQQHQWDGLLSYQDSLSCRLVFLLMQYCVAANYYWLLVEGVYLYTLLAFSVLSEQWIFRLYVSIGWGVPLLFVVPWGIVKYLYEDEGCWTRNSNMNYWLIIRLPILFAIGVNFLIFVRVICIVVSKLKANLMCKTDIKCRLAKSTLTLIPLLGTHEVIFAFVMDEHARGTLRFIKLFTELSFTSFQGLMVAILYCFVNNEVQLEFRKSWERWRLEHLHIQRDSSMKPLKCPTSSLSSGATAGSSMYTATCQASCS

Row | SMILES | EC50 (human GCGR; Table 2A) [nM] | hGCGR pEC50 (cAMP mean (n = 3): 11 point curve starting at 1 nM) (human GCGR) | EC50 (human GLP-1R; [3]) [nM] | EC50 (human GLP-1R; [4]) [nM] | solubility [1] [mg/mL] | Stability 1 mg/ml in water at 37 degC [2] [%] | clearance (in vivo) [mL/min/kg] | CL (FIGURE 2B) [mL/min/kg] | EC50 (human GLP-1R; [5]) [nM] | CL (FIGURE 2A) [mL/min/kg] | EC50 (human GCGR; Table 2B) [nM]
1 | CC(C)C[C@H](NC(=O)[C@H](Cc1ccc(O)cc1)NC(=O)[C@H](CCCCN)NC(=O)[C@H](CO)NC(=O)[C@H](Cc1ccc(O)cc1)NC(=O)[C@H](CC(=O)O)NC(=O)[C@H](CO)NC(=O)[C@@H](NC(=O)[C@H](Cc1ccccc1)NC(=O)[C@@H](NC(=O)CNC(=O)[C@H](Cc1c[nH]cn1)NC(=O)[C@H](CO)NC(=O)[C@@H](N)Cc1ccc(O)cc1)[C@@H](C)O)[C@@H](C)O)C(=O)N[C@@H](CC(=O)O)C(=O)N[C@@H](CO)C(=O)N[C@@H](C)C(=O)N[C@@H](CCCNC(=N)N)C(=O)N[C@@H](C)C(=O)N[C@@H](CCC(N)=O)C(=O)N[C@@H](CCC(=O)O)C(=O)N[C@@H](Cc1ccccc1)C(=O)N[C@H](C(=O)N[C@@H](CCCCN)C(=O)N[C@@H](Cc1c[nH]c2ccccc12)C(=O)N[C@@H](CC(C)C)C(=O)N[C@@H](CCC(=O)O)C(=O)N[C@@H](CC(=O)O)C(=O)N[C@@H](CCC(=O)O)C(=O)N1CCC[C@H]1C(=O)N[C@@H](CO)C(=O)N[C@@H](CO)C(=O)NCC(=O)N[C@@H](C)C(=O)N1CCC[C@H]1C(=O)N1CCC[C@H]1C(=O)N1CCC[C@H]1C(=O)N[C@@H](CO)C(N)=O)C(C)C [Compound A5] (H-YSHGTFTSDYSKYLDSARAQEFVKWLEDEPSSGAPPPS-NH2; N-terminus assumed) | 0.00158 | 11.8 | 1580 | 1580 | > 200 | >94 | 11.7 | 22.6 ± 0.6 | – | – | –
2 | CC(C)C[C@H](NC(=O)[C@H](Cc1ccc(O)cc1)NC(=O)[C@H](CCCCN)NC(=O)[C@H](CO)NC(=O)[C@H](Cc1ccc(O)cc1)NC(=O)[C@H](CC(=O)O)NC(=O)[C@H](CO)NC(=O)[C@@H](NC(=O)[C@H](Cc1ccccc1)NC(=O)[C@@H](NC(=O)CNC(=O)[C@H](CCC(N)=O)NC(=O)[C@H](CO)NC(=O)[C@@H](N)Cc1c[nH]c2ccccc12)[C@@H](C)O)[C@@H](C)O)C(=O)N[C@@H](CC(=O)O)C(=O)NC(C)(C)C(=O)N[C@@H](CCCCN)C(=O)N[C@@H](CCCNC(=N)N)C(=O)N[C@@H](C)C(=O)N[C@@H](CCC(N)=O)C(=O)N[C@@H](CCC(=O)O)C(=O)N[C@@H](Cc1ccccc1)C(=O)N[C@H](C(=O)NC(C)(C)C(=O)N[C@@H](Cc1c[nH]c2ccccc12)C(=O)N[C@@H](CC(C)C)C(=O)N[C@@H](CCC(=O)O)C(=O)N[C@@H](CC(=O)O)C(=O)N[C@@H](CCC(=O)O)C(=O)N1CCC[C@H]1C(=O)N[C@@H](CO)C(=O)N[C@@H](CO)C(=O)NCC(=O)N[C@@H](C)C(=O)N1CCC[C@H]1C(=O)N1CCC[C@H]1C(=O)N1CCC[C@H]1C(=O)N[C@@H](CO)C(=O)O)C(C)C [Compound A6] (H-WSQGTFTSDYSKYLD[Aib]KRAQEFV[Aib]WLEDEPSSGAPPPS-OH; N-terminus assumed) | 0.002 | 11.7 | 5010 | 5010 | > 200 | >80 | 12.4 | 9.2 ± 0.2 | – | – | –
3 | CC(C)C[C@H](NC(=O)[C@H](Cc1ccc(O)cc1)NC(=O)[C@H](CCCCN)NC(=O)[C@H](CO)NC(=O)[C@H](Cc1ccc(O)cc1)NC(=O)[C@H](CC(=O)O)NC(=O)[C@H](CO)NC(=O)[C@@H](NC(=O)[C@H](Cc1ccccc1)NC(=O)[C@@H](NC(=O)CNC(=O)[C@H](Cc1c[nH]cn1)NC(=O)[C@H](CO)NC(=O)[C@@H](N)Cc1ccc(O)cc1)[C@@H](C)O)[C@@H](C)O)C(=O)N[C@@H](CC(=O)O)C(=O)NC(C)(C)C(=O)N[C@@H](CCCCN)C(=O)N[C@@H](CCCNC(=N)N)C(=O)N[C@@H](C)C(=O)N[C@@H](CCC(N)=O)C(=O)N[C@@H](CCC(=O)O)C(=O)N[C@@H](Cc1ccccc1)C(=O)N[C@H](C(=O)NC(C)(C)C(=O)N[C@@H](Cc1c[nH]c2ccccc12)C(=O)N[C@@H](CC(C)C)C(=O)N[C@@H](CCC(=O)O)C(=O)N[C@@H](CC(=O)O)C(=O)N[C@@H](CCC(=O)O)C(=O)N1CCC[C@H]1C(=O)N[C@@H](CO)C(=O)N[C@@H](CO)C(=O)NCC(=O)N[C@@H](C)C(=O)N1CCC[C@H]1C(=O)N1CCC[C@H]1C(=O)N1CCC[C@H]1C(=O)N[C@@H](CO)C(=O)O)C(C)C [Compound A99] | – | – | > 1 | – | > 200 | >64 | 23 | – | > 1 | 22.3 ± 1.9 | –
4 | CC(C)C[C@H](NC(=O)[C@H](Cc1c[nH]c2ccccc12)NC(=O)[C@H](CCCCN)NC(=O)[C@@H](NC(=O)[C@H](Cc1ccccc1)NC(=O)[C@H](CCC(=O)O)NC(=O)[C@H](CCC(N)=O)NC(=O)[C@H](C)NC(=O)[C@H](CCCNC(=N)N)NC(=O)[C@H](CCCCN)NC(=O)C(C)(C)NC(=O)[C@H](CC(=O)O)NC(=O)[C@H](CC(C)C)NC(=O)[C@H](Cc1ccc(O)cc1)NC(=O)[C@H](CCCCN)NC(=O)[C@H](CO)NC(=O)[C@H](Cc1c[nH]cn1)NC(=O)[C@H](CC(=O)O)NC(=O)[C@H](CO)NC(=O)[C@@H](NC(=O)[C@H](Cc1ccccc1)NC(=O)[C@@H](NC(=O)CNC(=O)[C@H](Cc1c[nH]cn1)NC(=O)CNC(=O)[C@@H](N)Cc1ccc(O)cc1)[C@@H](C)O)[C@@H](C)O)C(C)C)C(=O)N[C@@H](CCC(=O)O)C(=O)N[C@@H](CC(=O)O)C(=O)N[C@@H](CCC(=O)O)C(=O)O [Compound A101] (H-YGHGTFTSDHSKYLD[Aib]KRAQEFVKWLEDE-OH; N-terminus assumed) | – | – | > 1 | – | > 200 | >50 | – | – | > 1 | 88.3 ± 9.0 | 0.00501
5 | CC(C)C[C@H](NC(=O)[C@H](Cc1c[nH]c2ccccc12)NC(=O)[C@H](CCCCN)NC(=O)[C@@H](NC(=O)[C@H](Cc1ccccc1)NC(=O)[C@H](CCC(=O)O)NC(=O)[C@H](CCC(N)=O)NC(=O)[C@H](C)NC(=O)[C@H](CCCNC(=N)N)NC(=O)[C@H](CCCCN)NC(=O)C(C)(C)NC(=O)[C@H](CC(=O)O)NC(=O)[C@H](CC(C)C)NC(=O)[C@H](Cc1c[nH]c2ccccc12)NC(=O)[C@H](CCCCN)NC(=O)[C@H](CO)NC(=O)[C@H](Cc1ccc(O)cc1)NC(=O)[C@H](CC(=O)O)NC(=O)[C@H](CO)NC(=O)[C@@H](NC(=O)[C@H](Cc1ccccc1)NC(=O)[C@@H](NC(=O)CNC(=O)[C@H](Cc1c[nH]cn1)NC(=O)[C@H](CO)NC(=O)[C@@H](N)Cc1ccc(O)cc1)[C@@H](C)O)[C@@H](C)O)C(C)C)C(=O)N[C@@H](CCC(=O)O)C(=O)N[C@@H](CC(=O)O)C(=O)N[C@@H](CCC(=O)O)C(=O)O [Compound A102] (H-YSHGTFTSDYSKWLD[Aib]KRAQEFVKWLEDE-OH; N-terminus assumed) | – | – | > 1 | – | > 200 | >51 | – | – | > 1 | 97.2 ± 6.3 | –
